Article PMC8699473, “An Easily Expandable Multi-Drug LC-MS Assay for the Simultaneous Quantification of 57 Oral Antitumor Drugs in Human Plasma” (Cancers, 2021)
Read-outs that look alike come from different tables or passages of the source.

Legend:
[1] = Freeze-thaw stability in spiked pooled human plasma; assay type: physicochemical
[2] = Autosampler stability of ready for injection samples; assay type: physicochemical, human
[3] = set-up: method as in supplement references [1-55] as printed per drug; conditions: minimum steady-state blood plasma concentration after multiple dose administration; ref supplement references [1-55] per drug; cited from earlier work

Row | Compound | Freeze-Thaw Accuracy [%] ([1]; validation standard 2xLLOV) | Freeze-Thaw Accuracy [%] ([1]; validation standard LLOV) | Freeze-Thaw Accuracy [%] ([1]; validation standard MOV) | Freeze-Thaw Accuracy [%] ([1]; validation standard ULOV) | Autosampler (24h, 4°C) Accuracy [%] ([2]; validation standard 2xLLOV) | Autosampler (72h, 4°C) Accuracy [%] ([2]; validation standard 2xLLOV) | Autosampler (24h, 4°C) Accuracy [%] ([2]; validation standard LLOV) | Autosampler (72h, 4°C) Accuracy [%] ([2]; validation standard LLOV) | Autosampler (24h, 4°C) Accuracy [%] ([2]; validation standard MOV) | Autosampler (72h, 4°C) Accuracy [%] ([2]; validation standard MOV) | Autosampler (24h, 4°C) Accuracy [%] ([2]; validation standard ULOV) | Autosampler (72h, 4°C) Accuracy [%] ([2]; validation standard ULOV) | cmin [3] [ng/mL] | Freeze-Thaw Accuracy [%] [1] [%] | Autosampler (24h, 4°C) Accuracy [%] [2] [%] | Autosampler (72h, 4°C) Accuracy [%] [2] [%]
1 | CNC(=O)c1ccc(N2C(=S)N(c3cnc(C#N)c(C(F)(F)F)c3)C(=O)C23CCC3)cc1F [Apalutamide] | 95.6 | 93.8 | 94.8 | 95.7 | 102.1 | 105.1 | 97.2 | 102.8 | 106.8 | 106.0 | 102.6 | 106.5 | 3700 |  |  | 
2 | CNC(=O)c1ccccc1Sc1ccc2c(/C=C/c3ccccn3)n[nH]c2c1 [Axitinib] | 108.3 | 102.1 | 105.4 | 104.0 | 101.2 | 104.9 | 105.9 | 97.7 | 102.7 | 100.0 | 100.4 | 99.1 | 5 |  |  | 
3 | Cn1cnc2c(F)c(Nc3ccc(Br)cc3F)c(C(=O)NOCCO)cc21 [Binimetinib] | 92.6 | 93.8 | 100.1 | 105.2 | 104.7 | 101.6 | 103.1 | 98.1 | 105.0 | 95.8 | 102.1 | 102.4 | 53.3 |  |  | 
4 | COc1cc(N2CCC(N3CCN(C)CC3)CC2)ccc1Nc1ncc(Cl)c(Nc2ccccc2P(C)(C)=O)n1 [Brigatinib] | 98.7 | 111.4 | 95.5 | 97.9 | 96.4 | 91.9 | 90.7 | 85.3 | 104.4 | 95.5 | 96.1 | 96.6 | 520 |  |  | 
5 | Cc1cc(Nc2ncc(Cl)c(Nc3ccccc3S(=O)(=O)C(C)C)n2)c(OC(C)C)cc1C1CCNCC1 [Ceritinib] | 96.9 | 99.9 | 97.6 | 97.5 | 95.1 | 100.1 | 97.1 | 98.1 | 100.8 | 103.5 | 101.3 | 106.5 | 871 |  |  | 
6 | O=C(c1ccc(F)c(F)c1Nc1ccc(I)cc1F)N1CC(O)([C@@H]2CCCCN2)C1 [Cobimetinib] | 98.6 | 98.3 | 97.3 | 96.3 | 100.3 | 100.8 | 94.6 | 93.0 | 105.2 | 103.1 | 102.5 | 107.2 | 127 |  |  | 
7 | C[C@@H](Oc1cc(-c2cnn(C3CCNCC3)c2)cnc1N)c1c(Cl)ccc(F)c1Cl [Crizotinib] | 94.8 | 72.2 | 102.4 | 92.4 | 105.2 | 103.5 | 88.1 | 86.1 | 108.4 | 103.8 | 96.5 | 94.7 | 274 |  |  | 
8 | CC(C)(C)c1nc(-c2cccc(NS(=O)(=O)c3c(F)cccc3F)c2F)c(-c2ccnc(N)n2)s1 [Dabrafenib] | 97.8 | 93.9 | 99.0 | 97.6 | 97.9 | 99.3 | 93.5 | 93.1 | 102.1 | 99.8 | 100.7 | 101.4 | 46.6 |  |  | 
9 | COC(=O)N[C@@H](C)CNc1nccc(-c2cn(C(C)C)nc2-c2cc(Cl)cc(NS(C)(=O)=O)c2F)n1 [Encorafenib] | 94.9 | 90.4 | 101.4 | 98.7 | 102.4 | 102.6 | 87.7 | 98.2 | 112.5 | 110.5 | 100.5 | 102.4 | 23 |  |  | 
10 | CNC(=O)c1ccc(N2C(=S)N(c3ccc(C#N)c(C(F)(F)F)c3)C(=O)C2(C)C)cc1F [Enzalutamide] | 97.8 | 87.6 | 100.9 | 96.1 | 100.5 | 102.2 | 89.9 | 91.3 | 108.0 | 105.7 | 101.7 | 103.3 | 11400 |  |  | 
11 | C#Cc1cccc(Nc2ncnc3cc(OCCOC)c(OCCOC)cc23)c1 [Erlotinib] | 100.9 | 113.3 | 100.4 | 102.0 | 102.3 | 98.1 |  | 103.9 | 103.3 | 98.3 | 103.4 | 102.9 | 1011 |  |  | 
12 | CS(=O)(=O)CCNCc1ccc(-c2ccc3ncnc(Nc4ccc(OCc5cccc(F)c5)c(Cl)c4)c3c2)o1 [Lapatinib] | 96.0 | 86.5 | 102.3 | 94.7 | 99.4 | 102.1 | 92.7 | 94.4 | 103.2 | 101.5 | 99.7 | 98.8 | 780 |  |  | 
13 | Nc1cccc2c1CN(C1CCC(=O)NC1=O)C2=O (stereo not shown) [Lenalidomide] | 104.4 | 91.0 | 97.3 | 96.8 | 117.5 | 109.8 | 80.7 | 95.6 | 107.0 | 100.0 | 100.8 | 98.9 | 13 |  |  | 
14 | C[C@H]1Oc2cc(cnc2N)-c2c(nn(C)c2C#N)CN(C)C(=O)c2ccc(F)cc21 [Lorlatinib] | 95.0 | 96.0 | 95.2 | 97.6 | 101.6 | 99.0 | 96.7 | 94.8 | 102.0 | 100.8 | 99.7 | 99.2 | 150 |  |  | 
15 | CCOc1cc2ncc(C#N)c(Nc3ccc(OCc4ccccn4)c(Cl)c3)c2cc1NC(=O)/C=C/CN(C)C [Neratinib] | 82.2 | 64.7 | 88.9 | 87.2 | 95.7 | 100.1 | 75.2 | 73.8 | 103.1 | 100.5 | 93.3 | 96.0 | 52.6 |  |  | 
16 | C=CC(=O)Nc1cc(Nc2nccc(-c3cn(C)c4ccccc34)n2)c(OC)cc1N(C)CCN(C)C [Osimertinib] | 93.7 | 95.6 | 96.2 | 92.7 | 104.2 | 99.1 | 90.3 | 91.2 | 103.8 | 100.3 | 98.4 | 99.1 | 166 |  |  | 
17 | Cc1ccc(Nc2nccc(N(C)c3ccc4c(C)n(C)nc4c3)n2)cc1S(N)(=O)=O [Pazopanib] | 103.5 | 102.7 | 103.9 | 100.5 | 103.7 | 99.4 | 101.3 | 99.0 | 101.7 | 97.9 | 99.8 | 99.0 | 24000 |  |  | 
18 | Cc1ccc(C(=O)Nc2ccc(CN3CCN(C)CC3)c(C(F)(F)F)c2)cc1C#Cc1cnc2cccnn12 [Ponatinib] | 101.8 |  | 99.3 | 100.2 | 106.1 | 106.1 |  |  | 106.1 | 102.3 | 101.9 | 102.0 | 34 | 101.5 | 104.7 | 104.7
19 | CN(C)C(=O)c1cc2cnc(Nc3ccc(N4CCNCC4)cn3)nc2n1C1CCCC1 [Ribociclib] | 103.9 | 86.3 |  | 92.4 | 103.0 |  | 84.0 |  | 104.1 |  | 89.8 |  | 732 |  |  | 
